{
  "source": "patent US20170209403A1",
  "about": "“METHOD FOR REGULATING ALDEHYDE DEHYDROGENASE 1” (National Cheng Kung University, priority 2016, published 2017)",
  "assay_type_in_all_cases": "cell-based, human",
  "key": {"[1]": {"tested_on": "ALDH1, FoxM1 and Notch-1 expression in ES2 cells", "test": "Western blotting of ALDH1, FoxM1 and Notch1", "conditions": "ES2-High cells; for ALDH1 expression: Thiostrepton or DAPT; for FoxM1 expression / Notch1 expression: different concentrations of Thiostrepton or DAPT", "experimental": "(§1) Right panel: relative fold changes of ALDH1 and FoxM1 expression compared with controls. […] Sphere formation in ES2-High cells after treatment with different concentrations of Thiostrepton or DAPT, and the relative fold changes in expression are shown (scale bar=200 μm).\nThe cells were lysed and then harvested using a cell lifter (Corning Costar). Protein concentrations were determined by Bio-Rad protein assay (Bio-Rad, Hercules, Calif.). Proteins were then separated by 10% sodium dodecyl sulphate-polyacrylamide gel electrophoresis and transferred to polyvinylidene difluoride membranes. Western blotting was performed using the following antibodies at the indicated dilutions: anti-ALDH1 (1:1000; BD Biosciences), anti-Oct4 (1:1000; BD Biosciences), anti-Nanog (1:1000; BD Biosciences), anti-Notch1 (1:1000; Abcam, Cambridge, UK), anti-FoxM1 (1:1000; Santa Cruz Biotechnology, Santa Cruz, Calif.) and anti-beta actin (1:5000; Sigma)."}, "[2]": {"tested_on": "ES2 cells (ES2-High, ES2-Low)", "test": "Sphere formation assay", "conditions": "for sphere formation: ES2-High cells, different concentrations of Thiostrepton or DAPT; for decrease of sphere formation: ES2-Low cells, Thiostrepton or DAPT", "experimental": "as §1\n(§2) Standard sphere formation assays were performed according to Zhang et al. (Zhang, S. et al. Cancer Res., 68, 4311-4320.) with minor modification. The cells (1×10^3) were resuspended in serum-free DMEM/F12 medium supplemented with 5 μg/ml insulin (Sigma), 20 ng/ml human recombinant epidermal growth factor (EGF; Invitrogen, Life Technologies, Carlsbad, Calif.) and 10 ng/ml basic fibroblast growth factor (bFGF; Invitrogen) in ultra-low attachment plates (Corning Costar, Corning, N.Y.). Spheres that arose within 1-2 weeks were counted. Colony diameters >50 μm were counted as a single-positive colony. The middle field was chosen for counting of spheres, and two fields for each plate were counted under a dissecting microscope. For all sphere formation experiments, a minimum of eight wells was run for each condition. All data represent the mean ±SEM of three separate experiments and at least 24 different fields.\n(§3) An Aldefluor® kit (StemCell Technologies) was used to assess ALDH activity in the ovarian cancer cell lines, as previously described (Saw, Y. T. et al. (2012) BMC Cancer, 12, 329.). In brief, 1×10^6 cells were incubated in Aldefluor® assay buffer containing a 1.5 μM ALDH substrate for 30 min at 37° C. Each sample was treated with 50 μM of DEAB, and used as a negative control. Prior to analysis, cells were stained with […] of propidium iodide to evaluate their viability. The fluorescence intensity of the stained cells was analysed using a FACSAria cell sorter Flow Cytometer (BD Biosciences). The reaction with DEAB was used to define the baseline for the assay. The ALDH activity of a sample was determined to be ‘high’ or ‘low’ based on the fluorescence intensity beyond or below the threshold defined by the reaction with DEAB. The cells having high or low ALDH activity are marked “-High” or “-Low” hereafter."}, "[3]": {"tested_on": "ALDH1, FoxM1 and Notch-1 expression in ES2 cells", "test": "Western blotting of ALDH1, FoxM1 and Notch1", "conditions": "ES2-Low cells; Thiostrepton or DAPT"}, "[4]": {"tested_on": "A2780 and CP70 ovarian cancer cells", "test": "Sphere formation assay", "conditions": "for sphere formation efficiency: control and shALDH1 cells (A2780, CP70, CP70-vector, CP70-shALDH1), 1 μM Thiostrepton or 10 μM DAPT, 10 days", "experimental": "FIGS. 1A-1F show ALDH1 regulates stemness and tumourigenic ability in ovarian cancer cells. […] A total of 1×10^3 A2780 (upper panel) and CP70 (lower panel) cells were seeded into a 96-well plate to evaluate the cells' sphere formation ability (scale bar=200 μm). DEAB was used to inhibit the reaction of ALDH1 and also served as a negative control. […] The β-actin was used as a protein loading control. The histogram represents the relative fold change of protein expression (right panel). […] A2780-ALDH1 (upper panel) and CP70-shALDH1 (lower panel) cells were seeded into 96-well plates to evaluate their sphere formation ability (scale bar=200 μm).\nFIGS. 2A-2D show ALDH1 regulates stemness and tumourigenic ability through the FoxM1 and Notch1 signalling pathways. […] Representative images show spheres generated from single-cell cultures after 10 days. The lower panel depicts the relative sphere formation ratio (scale bar=200 μm). […] V: vector.\nas §2, §3"}, "[5]": {"tested_on": "ALDH1, FoxM1, Notch1, Oct-4 and Nanog expression in A2780 and CP70 cells", "test": "Western blotting of ALDH1, FoxM1, Notch1 and CSC markers", "conditions": "for ALDH1 expression / FoxM1 expression / Notch1 expression: A2780 and CP70 cells; for ALDH1 expression: 1 μM Thiostrepton or 10 μM DAPT; for FoxM1 expression / Notch1 expression: 1 μM Thiostrepton, 10 μM DAPT, or DEAB"}, "[6]": {"tested_on": "A2780 and CP70 ovarian cancer cells", "test": "MTT cytotoxicity assay (proliferation, doubling time)", "set-up": "toxicity: dose or concentration left out as unconfirmed", "conditions": "for cell proliferation: A2780 and CP70 derived cells, inhibitor treatment", "experimental": "The cell lines were cultured in a humidified incubator containing 95% air and 5% CO2 at 37° C. in 96-well flat-bottomed microtiter plates. After 72 h of incubation, the in vitro cytotoxic effects of treatments were determined by MTT assay (at 570 nm)."}, "ALDH1": {"tested_on": "ALDH1", "test": "Aldefluor assay of ALDH1 enzyme activity / ALDH1-High cell fraction", "conditions": "A2780-Low and CP70-Low cells; ATRA (10 μM) or paclitaxel (60 ng/ml) for 4 days", "experimental": "as §3"}},
  "data": [
    {"compound": "C=C(NC(=O)C(=C)NC(=O)c1csc(C2=N[C@@H]3c4csc(n4)[C@H]4NC(=O)c5csc(n5)[C@H]([C@](C)(O)[C@@H](C)O)NC(=O)[C@H]5CSC(=N5)/C(=C/C)NC(=O)[C@H]([C@@H](C)O)NC(=O)c5csc(n5)[C@]3(CC2)NC(=O)[C@H](C)NC(=O)C(=C)NC(=O)[C@H](C)NC(=O)[C@H]([C@@H](C)CC)N[C@@H]2C=Cc3c([C@H](C)O)cc(nc3[C@H]2O)C(=O)O[C@@H]4C)n1)C(N)=O", "note": "[Thiostrepton, thiostrepton]", "values": [
      {"measurement": "ALDH1 expression", "setting": "[1]", "value": "did not affect ALDH1 expression"},
      {"measurement": "FoxM1 expression", "setting": "[1]", "value": "downregulated the expression levels of both FoxM1 and Notch1 in ES2-High cells in a dose-dependent manner"},
      {"measurement": "Notch1 expression", "setting": "[1]", "value": "downregulated the expression levels of both FoxM1 and Notch1 in ES2-High cells in a dose-dependent manner"},
      {"measurement": "sphere formation", "setting": "[2]", "value": "decreased sphere formation in ES2-High cells in a dose-dependent manner"},
      {"measurement": "decrease of sphere formation", "setting": "[2]", "value": "not observed"},
      {"measurement": "downregulation of FoxM1 and Notch1 expression", "setting": "[3]", "value": "not observed"},
      {"measurement": "sphere formation efficiency", "setting": "[4]", "value": "decreased sphere formation efficiency"},
      {"measurement": "ALDH1 expression", "setting": "[5]; western blotting", "value": "did not affect ALDH1 expression"},
      {"measurement": "FoxM1 expression", "setting": "[5]; western blotting", "value": "reduced the expression not only of FoxM1 but also of Notch1"},
      {"measurement": "Notch1 expression", "setting": "[5]; western blotting", "value": "reduced the expression not only of FoxM1 but also of Notch1"},
      {"measurement": "toxicity", "setting": "[6]; A2780 and CP70-shALDH1 cells, effect not significant", "value": "slight toxicity"}
    ]},
    {"compound": "C[C@H](NC(=O)Cc1cc(F)cc(F)c1)C(=O)N[C@H](C(=O)OC(C)(C)C)c1ccccc1", "note": "[DAPT, N-[2S-(3,5-difluorophenyl)acetyl]-L-alanyl-2-phenyl-1,1-dimethylethyl ester-glycine]", "values": [
      {"measurement": "ALDH1 expression", "setting": "[1]", "value": "did not affect ALDH1 expression"},
      {"measurement": "FoxM1 expression", "setting": "[1]", "value": "downregulated the expression levels of both FoxM1 and Notch1 in ES2-High cells in a dose-dependent manner"},
      {"measurement": "Notch1 expression", "setting": "[1]", "value": "downregulated the expression levels of both FoxM1 and Notch1 in ES2-High cells in a dose-dependent manner"},
      {"measurement": "sphere formation", "setting": "[2]", "value": "decreased sphere formation in ES2-High cells in a dose-dependent manner"},
      {"measurement": "decrease of sphere formation", "setting": "[2]", "value": "not observed"},
      {"measurement": "downregulation of FoxM1 and Notch1 expression", "setting": "[3]", "value": "not observed"},
      {"measurement": "sphere formation efficiency", "setting": "[4]", "value": "decreased sphere formation efficiency"},
      {"measurement": "FoxM1 expression in FoxM1-overexpressing cells", "setting": "[5]; A2780-FoxM1 cells, immunoblot, DAPT", "value": "failed to attenuate FoxM1 expression"},
      {"measurement": "ALDH1 expression", "setting": "[5]; western blotting", "value": "did not affect ALDH1 expression"},
      {"measurement": "FoxM1 expression", "setting": "[5]; western blotting", "value": "decreased Notch1 expression as well as FoxM1 expression, but to a lesser extent"},
      {"measurement": "Notch1 expression", "setting": "[5]; western blotting", "value": "decreased Notch1 expression"},
      {"measurement": "cell proliferation", "setting": "[6]", "value": "did not affect proliferation"}
    ]},
    {"compound": "CC(=O)O[C@H]1C(=O)[C@@]2(C)[C@H]([C@H](OC(=O)c3ccccc3)[C@]3(O)C[C@H](OC(=O)[C@H](O)[C@@H](NC(=O)c4ccccc4)c4ccccc4)C(C)=C1C3(C)C)[C@]1(OC(C)=O)CO[C@@H]1C[C@@H]2O", "note": "[paclitaxel]", "values": [
      {"measurement": "proportion of ALDH1-High cells", "setting": "ALDH1", "value": "increased proportion of ALDH1-High cells"}
    ]},
    {"compound": "CCN(CC)c1ccc(C=O)cc1", "note": "[DEAB, diethylaminobenzaldehyde]", "values": [
      {"measurement": "sphere formation", "setting": "[4]; ALDH1-High A2780 or CP70 cells, DEAB treatment", "value": "suppressed sphere formation"},
      {"measurement": "FoxM1 expression", "setting": "[5]; western blotting", "value": "downregulated"},
      {"measurement": "Notch1 expression", "setting": "[5]; western blotting", "value": "downregulated"},
      {"measurement": "expression of CSC marker proteins FoxM1, Notch1, Oct 4 and Nanog", "setting": "[5]; ALDH1-High cells, DEAB treatment, western blotting", "value": "inhibited"},
      {"measurement": "cell proliferation", "setting": "[6]", "value": "did not affect cell proliferation"}
    ]}
  ]
}
